Values quoted from earlier work, collected in patent publication US5281421A, “Gemfibrozil formulations” (Warner-Lambert Company, priority 1992, dated 1994).

Conditions: particularly in a highly acidic medium

For Cc1ccc(C)c(OCCCC(C)(C)C(=O)O)c1 [Gemfibrozil, 5-(2,5-dimethylphenoxy)-2,2-dimethylpentanoic acid], the solubility in water is given as “very poor solubility in water”.
